Test results reported in patent US20260315477A1, “THERAPEUTIC APPROACH TO BLOCK TERMINAL EXHAUSTION OF T CELLS AND SYNERGIZETHE EFFICACY OF T CELL IMMUNOTHERAPIES” (priority 2023, published 2026).
“Also recorded” adds a separate entry of the source.

Experiments:
[1] = test system: dysfunctional human CD8 T cells; experiment: In vitro model of human CD8 T cell dysfunction (chronic TCR plus TGFβ1 stimulation, day 28): effector functions, polyfunctionality, memory programs; assay type: cell-based; settings: for effector functions of human TEX cells: FIGS. 49A-49E
[2] = molecular target: KDM5A and KDM5B; settings: cited from earlier work
[3] = cited from earlier work
[4] = test system: myeloma cells; settings: cited from earlier work
[5] = test system: H3K4me3; settings: myeloma cells; cited from earlier work
[6] = test system: AML cells; experiment: Tumor-killing activity of treated dysfunctional human CD8 T cells (coculture with AML cells, 18 hr); assay type: cell-based; settings: with TGFβ1 blockade (TGFBR1 blocker); 25 μM GSK467; days 14-28
[7] = test system: TBX21 locus; experiment: DNA methylation at dysfunction-associated differentially methylated region, targeted Oxford Nanopore assay; assay type: cell-based, human; settings: GSK467 with or without TGFBR1 inhibitor (Repsox)
Procedure: To determine whether targeting H3K4 demethylation can reduce de novo DNA methylation programs at the effector function-related genes in human CD8 T cells, the changes in DNA methylation levels were assessed at the dysfunction-associated differentially methylated region in dysfunctional human CD8 T cells after GSK467 (KDM5A/B inhibitor) with or without TGFBR1 inhibitor (Repsox) treatment.

[8] = test system: B16-F10-GP33 melanoma cells; experiment: In vitro tumor cell death of B16 melanoma cells; assay type: cell-based; settings: 24, 48 and 72 hours, different doses
Description: Ordinary two-way ANOVA test, Dunnett's test. Error bars indicate SEM. N=4 replica of 2 independent experiments.

[9] = test system: virus-specific exhausted CD8 T cells; assay type: in vivo, mouse
[10] = test system: B16-F10 melanoma; experiment: B16-F10 melanoma model; assay type: in vivo, mouse; settings: 5 mg/Kg, every 2 days i.p.
Description: (§1) Targeting KDM5B in melanoma cells leads to enhanced tumor rejection by derepressing the expression of endogenous retroviral elements in tumor cells and reducing immune evasion of tumor cells. These findings provide a strong rationale for testing the in vivo efficacy of a selective KDM5A/B inhibitor as an adjunctive treatment to ICB therapy in ICB-refractory tumors. Discussed herein is whether the pharmacological inhibition of KDM5A/B recovers the responses of anti-tumor CD8 T cells to ICB treatment during solid tumors. Utilized herein are two tumor models known to be refractory to PD-1/PD-L1 blockade therapy, including orthotopic OVA-expressing PyMT breast adenocarcinoma and GP33-expressing B16-F10 melanoma in C57BL/6 animals. One week following the adoptive transfer of Thy1.1+TCR-transgenic CD8 T cells (OVA-specific OT-I or GP33-specific P14 cells) into tumor-bearing animals, mono- or combined therapy using KDM5A/Bi plus anti-PD-L 1 treatment was started (FIG. 25A-25B). Changes in tumor growth was tracked and measure the quantity, phenotype, proliferative potential, and functional capacity of adoptively transferred anti-tumor CD8 T cells measured within tumors and draining lymph nodes using spectral cytometry as described herein. […]

[11] = test system: CT2A-gp33 glioma; experiment: CT2A-gp33 glioma model; assay type: in vivo, mouse; settings: combined with PD-L1 blockade; CD8-KO or Rag1-KO animals, P14 CD8 T cells transferred
[12] = test system: tumor-specific CD8 T cells; experiment: Tumor-infiltrating lymphocyte analysis in CT2A-gp33 glioma model; assay type: in vivo, mouse; settings: combined with PD-L1 blockade
Procedure: CT2A-gp33 Glioma Model: The efficacy of GSK467 therapy was tested using CT2A-gp33 glioma model with gp33-specific P14 CD8 T cells adoptively transferred on day 17-20. […] (FIGS. 38A-38C)

[13] = test system: PyMT-OVA breast adenocarcinoma; experiment: Orthotopic breast cancer model (PyMT-OVA breast adenocarcinoma); assay type: in vivo, mouse; settings: combined with PD-L1 blockade, compared to PD-L1 blockade only
Description: FIGS. 16A-16C show therapeutic blockade of KDM5A and KDM5B boosts the responses of anti-tumor CD8 T cells to ICB therapy.
as §1

[14] = test system: Tprog, Tcyto and Tterm CD8 T cells; settings: mouse, in vivo
[15] = test system: P14 CD8 T cells; settings: mouse, in vivo
[16] = test system: KDM6; settings: cited from earlier work
[17] = test system: other Jumonji family members; settings: cited from earlier work
[18] = test system: TEX cells; settings: cited from earlier work
[19] = test system: other immune cells; settings: cited from earlier work
[20] = either GSK467 or C70, C70 25 μM, days 14-28

CCOC(=O)c1ccnc(CNCC(=O)N(CC)CCN(C)C)c1 [C70]
effector functions of human TEX cells [1]: enhances effector functions of human TEX cells | polyfunctionality and memory expression programs [1, 20]: significantly enhanced polyfunctionality and memory expression programs | KDM5A and KDM5B histone demethylase inhibition [2]: potent | cell penetration / permeability [3]: cell-permeable | antiproliferative effect [4]: antiproliferative effect | H3K4me3 levels [5]: genome-wide elevation of H3K4me3 levels

O=c1nc(Oc2cnn(Cc3ccccc3)c2)[nH]c2cnccc12 [GSK467]
effector functions of human TEX cells [1]: enhances effector functions of human TEX cells | polyfunctionality and memory expression programs [1, 20]: significantly enhanced polyfunctionality and memory expression programs | cytolytic activity and effector functions of dysfunctional human T cells ([1]; in vitro, direct effects on CD8 T cells): enhances the cytolytic activity and effector functions of dysfunctional human T cells | effector and memory programs in dysfunctional human CD8 T cells ([1]; late treatment): can recover effector and memory programs | effector cytokine secretion and expression of memory-related transcription factors ([1]; monotherapy, 25 μM GSK467, days 14-28): significantly restored effector cytokine secretion and expression of memory-related transcription factors | polyfunctionality and memory expression programs ([1]; with TGFβ1 blockade (TGFBR1 blocker), 25 μM GSK467, days 14-28): further potentiated the reactivation of polyfunctionality and memory expression programs | tumor-killing activity [6]: augmented tumor-killing activity | acquisition of de novo DNA methylation marks at the TBX21 locus [7]: significantly reduced the acquisition of de novo DNA methylation marks at the TBX21 locus | tumor cell death, frequencies of dead B16 melanoma cells [8]: increases B16 melanoma tumor death in vitro | expansion of IFNG-secreting virus-specific CD8 T cells ([9]; mouse, in vivo): significant expansion of both Tprog and Tcyto cells, as well as IFNG-secreting virus-specific CD8 T cells | expansion of Tprog and Tcyto cells ([9]; mouse, in vivo): significant expansion of both Tprog and Tcyto cells | responses of virus-specific exhausted CD8 T cells to PD-L1 blockade ([9]; mouse, in vivo): enhanced the responses of virus-specific TEX cells to PD-L1 blockade; also recorded: enhanced the responses of virus-specific exhausted CD8 T cells to PD-L1 blockade | TEX cell responses to ICB during chronic LCMV infection ([9]; with anti-PD-L1 (FIGS. 7A-7E)): enhances TEX responses to ICB | tumor control, combination ([10]; combination with PD-L1 blockade, days 12-20): further potentiated with combination PD-L1 blockade therapy | tumor control ([10]; monotherapy, days 12-20 post-tumor inoculation): significant tumor control | tumor control [11]: significant tumor control | frequencies of IFNG-secreting tumor-specific CD8 T cells [12]: increased frequencies of IFNG-secreting tumor-specific CD8 T cells | quantities of tumor-specific CD8 T cells [12]: significant increase in the quantities of tumor-specific CD8 T cells | breast tumor control [13]: significant breast tumor control | development of Tterm cells [14]: impeding the development of Tterm cells | quantity of Tcyto cells [14]: increased the quantity of Tcyto cells | proliferation response and long-lived memory function after ICB treatment [15]: synergized their proliferation response and promote long-lived memory function after ICB treatment | Ki ([2]; role: inhibitor, stated for KDM5A and KDM5B together): 10 nM | IC50 ([2]; stated for KDM5A and KDM5B together): 26 nM | inhibitory effects toward KDM6 [16]: no measurable inhibitory effects | inhibitory effects toward other Jumonji family members [17]: no measurable inhibitory effects | cell penetration / permeability [3]: cell penetrant

Cc1cccc(-c2[nH]ncc2-c2ccc3ncccc3n2)n1 [TGFBR1 blocker]
effector functions of chronically stimulated CD8 T cells ([1]; TGFβ1 blockade alone, days 14-28): recovered effector functions of chronically stimulated CD8 T cells

Nc1ncn([C@H]2C[C@H](O)[C@@H](CO)O2)c(=O)n1 [decitabine]
response of TEX cells, with ICB therapy [18]: synergizes with ICB therapy to rescue the response of TEX cells | cytotoxicity and adverse effects [19]: highly cytotoxic drug that has adverse effects on other immune cells | selectivity [19]: non-selective
